Assay results taken from patent US8513285B2, “3 or 4-substituted piperidine compounds” (SK Biopharmaceuticals Co., Ltd., priority 2008, dated 2013).

Columns and labels:
[1] = molecular target: T1, human recombinant dopamine transporter (Homo sapiens, UniProt Q01959); test: Dopamine transporter reuptake inhibition assay; assay type: cell-based; details: 100 nM; CHO-K1 cells with human dopamine transporter; [3H]Dopamine uptake; read-out: Inhibition % at 100 nM DA reuptake
T1 construct: expressed in transfected cells; host or cells: CHO-K1
Experimental: Dopamine Transporter Reuptake Inhibition Assay
The assay followed the method modified from Pristupa Z. B. et al., Mol. Pharmacol., 1994, p 125˜135.
CHO-K1 cells with human recombinant dopamine transporter were plated. Test compounds were pre-incubated with cells (4×10^5/ml) in modified Tris-HEPES buffer pH 7.1 for 20 minutes at 25° C. and then they were incubated for additional 10 minutes after 50 nM of [^3H]Dopamine was added. A lysate is obtained from solubilized cells and counted to determine [^3H]Dopamine uptake. Reduction of [^3H]Dopamine uptake by 50 percent or more (≧50%) relative to 10 μM nomifensine indicates significant inhibitory activity. Compounds were tested at 10, 1, 0.1, 0.01 and 0.001 μM for IC50s.

[2] = molecular target: T2, human serotonin transporter (Homo sapiens, UniProt P31645); test: Serotonin transporter reuptake inhibition assay; assay type: cell-based; details: HEK293; 100 nM; HEK-293 cells with human serotonin transporter; [3H]Serotonin uptake; read-out: Inhibition % at 100 nM 5-HT reuptake
T2 construct: expressed in transfected cells; host or cells: HEK-293
Experimental: Serotonin Transporter Reuptake Inhibition Assay
The method to test the ability of compounds to inhibit transporters from reuptake of serotonin followed Gu H. et al., J Biol. Chem., 1994, 269, p […].
The recombinant HEK-293 cells with human serotonin transporter were plated. Test compounds were pre-incubated with cells (2×10^5/ml) in modified Tris-HEPES buffer pH 7.1 for 20 minutes at 25° C. and then they were incubated for additional 10 minutes after 65 nM of [^3H]Serotonin was added. Bound cells were filtered and counted to determine [^3H]Serotonin uptake. Reduction of [^3H]Serotonin uptake by 50 percent or more (≧50%) relative to 10 μM fluoxetine indicates significant inhibitory activity. Compounds were screened at 10, 1, 0.1, 0.01 and 0.001 μM for IC50s.

mice [3] = test: Acetic acid induced writhing test (AA writhing test); assay type: in vivo; details: 0.8% acetic acid i.p. 30 min later, vs control group
From the text: Specially the results of Marble burying test (MB) in mice as noted in Table 3 show the compounds of the invention are related to the treatment of anxiety. Acetic Acid Induced Writhing Test (AA Writhing Test)
The Acetic acid-induced writhing test is a well-established nociceptive test using a chemical stimulus. Although several animal models of nociceptive tests have been developed to examine and compare the anti-nociceptive effects of different drugs, the anti-nociceptive effects of antidepressants appear to be test-dependent. Indeed, the acetic acid-induced writhing test is more sensitive to antidepressants than other tests using thermal, mechanical or electrical stimuli.
The animals were subcutaneously treated with the test compound with an injection volume of 10 ml/kg. The group treated with 30% PEG400 or saline served as a control group. Thirty minutes later, the mice were intraperitoneally treated with 0.8% (v/v) acetic acid. Each mouse was then placed in a cage for individual observation. The writhing numbers for 10 minutes were counted. The writhe is operationally defined as a contraction of the abdomen followed by stretching of the hind limbs. The potent ability of the compounds was determined as percent value of reduction in the number of writhing comparing to the control group.

[4] = molecular target: T3, human recombinant norepinephrine transporter (Homo sapiens, UniProt P23975); test: Norepinephrine transporter reuptake inhibition assay; assay type: cell-based; details: 100 nM; MDCK cells with human norepinephrine transporter; [3H]Norepinephrine uptake; read-out: Inhibition % at 100 nM NE reuptake
T3 construct: expressed in transfected cells; host or cells: MDCK
Experimental: Norepinephrine Transporter Reuptake Inhibition Assay
Norepinephrine transporter reuptake inhibition assay used the method described by Galli A. et al., J Exp Biol., 1995, 198, p 2197˜2212.
MDCK cells with stably expressed human recombinant norepinephrine transporter were plated one day. Test compounds were pre-incubated with cells (2×10^5/ml) in modified Tris-HEPES buffer pH 7.1 for 20 minutes at 25° C. and then they were incubated for additional 10 minutes after 25 nM of [^3H]Norepinephrine was added. A lysate was obtained from solubilized cells and the filtered lysate was counted to determine [^3H]Norepinephrine uptake. Reduction of [^3H]Norepinephrine uptake by 50 percent or more (≧50%) relative to 10 μM desipramine indicates significant inhibitory activity. Compounds were screened at 10, 1, 0.1, 0.01 and 0.001 μM to determine their IC50s.

mice [5] = test: Marble burying test; assay type: in vivo; details: 30 min after treatment, vs control group
From the text: The Marble burying test is a screening tool for putative anxiolytics. In this test, control mice naturally bury glass marbles in the cage bedding and the administration of anxiolytic compounds, including Diazepam, reduces the number of buried marbles. Positive compounds in the marble burying test including selective serotonin reuptake inhibitor may be especially beneficial to obsessive-compulsive disorder.
A group of mice was intraperitoneally treated with test compound dissolved in 30% PEG400 with an injection volume of 10 ml/kg. The group treated with only 30% PEG400 served as a control group. Thirty minutes after the treatment, the animals were individually placed in a polycarbonate cage which was same as used for animal housing with an open top located within a quiet room. Each cage consisted of ⅛ inch corn bedding 5 cm deep. Twenty four clean glass marbles (15 mm diameter) were evenly spaced in four rows of six on top of the bedding. Each mouse was left in the cage for 30 minutes and the number of marbles buried (buried more than ½ or ⅔) was counted. The potent ability of the compounds was determined as percent value of reduction in the number of marbles buried comparing to the control group.

mice [6] = test: Forced swimming test in mice (FST); assay type: in vivo; details: Mus musculus, 0.5 h, 30ip, 30 min after administration, vs control group, read-out: Reduction % at 30ip (duration of immobility)
Experimental: Forced Swimming Test in Mice (FST)
The Forced swimming test is an animal model based on the rodent's behavioral repertoire for screening drugs with potential antidepressant activity. As in several other models used for this goal, an uncontrollable stress stimulus produces behavioral changes that are sensitive to antidepressant treatment.
The mice were intraperitoneally treated with the test compound with an injection volume of […]. The group treated with 30% PEG400 served as a control group. Thirty minutes following administration, mice were individually forced to swim in a transparent glass vessel (14 cm high, 11.5 cm in diameter) filled with 10 cm of water at 25° C. The total duration of immobility (second) was measured during the last 4 minutes of a single 6-min test session. Mice were considered immobile when they made no further attempts to escape other than the movements necessary to keep their heads above the water. The potent ability of the compounds was determined as percent value of reduction in the duration of immobility comparing to the control group.

T3 sequence (P23975 whole entry): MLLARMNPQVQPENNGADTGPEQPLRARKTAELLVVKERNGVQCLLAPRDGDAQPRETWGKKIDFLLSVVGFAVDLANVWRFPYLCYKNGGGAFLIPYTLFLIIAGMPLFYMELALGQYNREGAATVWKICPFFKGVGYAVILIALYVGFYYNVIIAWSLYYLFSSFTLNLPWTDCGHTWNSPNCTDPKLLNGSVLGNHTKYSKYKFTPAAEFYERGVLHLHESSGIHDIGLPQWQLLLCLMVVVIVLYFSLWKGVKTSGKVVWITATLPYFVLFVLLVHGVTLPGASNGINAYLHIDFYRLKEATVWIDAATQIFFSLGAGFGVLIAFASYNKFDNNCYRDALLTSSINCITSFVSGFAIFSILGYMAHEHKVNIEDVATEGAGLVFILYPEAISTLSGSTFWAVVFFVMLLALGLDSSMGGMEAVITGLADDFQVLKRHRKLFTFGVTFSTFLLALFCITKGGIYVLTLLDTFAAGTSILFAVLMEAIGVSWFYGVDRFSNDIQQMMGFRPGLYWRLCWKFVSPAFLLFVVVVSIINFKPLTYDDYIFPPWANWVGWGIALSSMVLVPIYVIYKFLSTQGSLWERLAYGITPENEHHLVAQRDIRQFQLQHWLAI
T1 sequence (Q01959 whole entry): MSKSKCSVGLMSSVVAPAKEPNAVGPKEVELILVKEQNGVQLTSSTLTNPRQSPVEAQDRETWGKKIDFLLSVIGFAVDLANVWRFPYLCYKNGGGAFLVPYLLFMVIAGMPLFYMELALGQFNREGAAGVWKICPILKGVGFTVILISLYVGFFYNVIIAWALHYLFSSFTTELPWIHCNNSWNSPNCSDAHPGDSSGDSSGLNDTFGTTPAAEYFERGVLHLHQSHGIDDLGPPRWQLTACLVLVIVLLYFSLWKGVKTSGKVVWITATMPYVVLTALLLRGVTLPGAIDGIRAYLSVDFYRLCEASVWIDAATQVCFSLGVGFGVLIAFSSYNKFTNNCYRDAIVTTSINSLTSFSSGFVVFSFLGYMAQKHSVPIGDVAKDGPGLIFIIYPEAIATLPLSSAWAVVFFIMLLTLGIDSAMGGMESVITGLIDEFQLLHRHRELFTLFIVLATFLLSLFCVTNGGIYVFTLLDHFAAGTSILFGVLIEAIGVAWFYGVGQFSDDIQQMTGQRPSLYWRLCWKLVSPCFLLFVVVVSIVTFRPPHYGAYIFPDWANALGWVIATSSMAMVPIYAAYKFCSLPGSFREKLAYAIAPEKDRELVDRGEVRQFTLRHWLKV
T2 sequence (P31645 whole entry): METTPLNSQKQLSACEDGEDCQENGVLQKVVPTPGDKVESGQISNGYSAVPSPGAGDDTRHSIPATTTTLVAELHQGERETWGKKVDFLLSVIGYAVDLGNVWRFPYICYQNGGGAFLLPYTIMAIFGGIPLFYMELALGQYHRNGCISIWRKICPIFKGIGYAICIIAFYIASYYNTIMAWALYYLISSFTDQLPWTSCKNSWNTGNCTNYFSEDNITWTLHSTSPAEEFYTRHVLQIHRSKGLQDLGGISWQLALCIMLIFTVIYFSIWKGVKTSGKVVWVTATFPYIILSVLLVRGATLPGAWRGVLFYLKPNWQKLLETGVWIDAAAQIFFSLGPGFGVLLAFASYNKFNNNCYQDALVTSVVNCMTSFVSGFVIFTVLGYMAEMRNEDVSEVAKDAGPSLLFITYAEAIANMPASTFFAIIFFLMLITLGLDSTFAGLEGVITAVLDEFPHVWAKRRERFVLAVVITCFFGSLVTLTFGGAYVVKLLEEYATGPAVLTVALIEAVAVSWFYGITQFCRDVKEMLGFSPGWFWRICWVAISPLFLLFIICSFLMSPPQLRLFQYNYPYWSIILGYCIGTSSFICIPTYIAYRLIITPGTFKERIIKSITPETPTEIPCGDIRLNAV

Row | inhibition at 0.1 µM [1] | inhibition at 0.1 µM [2] | inhibition at 0.1 µM [4] | SMILES | Reduction % at 30sc (number of writhing) (mice [3]) | Reduction % (number of marbles buried) at 10ip (mice [5]; 10ip) | inhibition in vivo at 30 mg/kg (mice [6]) | Reduction % (number of writhing) at 10sc (mice [3]) | Reduction % (number of marbles buried) at 20ip (mice [5]; 20ip)
1 | 93% | 93% | 87% | Cc1nnn([C@H](c2ccc3ccccc3c2)[C@H]2CCCNC2)n1 [Example 10, (3S)-3-[(S)-(5-methyl-2H-tetrazol-2-yl)(naphthalen-2-yl)methyl]piperidine] |  |  |  |  | 
2 | 63% | 84% | 87% | c1ccc2cc([C@@H]([C@@H]3CCCNC3)n3nccn3)ccc2c1 [Example 13, (3R)-3-[(R)-naphthalen-2-yl(2H-1,2,3-triazol-2-yl)methyl]piperidine] | 71.8% |  | 9.4% |  | 
3 | 52% | 76% | 70% | c1ccc2cc([C@H]([C@H]3CCCNC3)n3nccn3)ccc2c1 [Example 14, (3S)-3-[(S)-naphthalen-2-yl(2H-1,2,3-triazol-2-yl)methyl]piperidine] |  |  | 6.4% |  | 
4 | 78% | 76% | 72% | COc1ccc2cc([C@H]([C@H]3CCCNC3)n3ncnn3)ccc2c1 [Example 35, (3S)-3-[(S)-(6-methoxynaphthalen-2-yl)(2H-tetrazol-2-yl)methyl]piperidine] |  |  | 32.7% |  | 
5 | 81% | 97% | 90% | Clc1ccc2cc([C@@H]([C@@H]3CCCNC3)n3ncnn3)ccc2c1 [Example 67, (3R)-3-[(R)-(6-chloronaphthalen-2-yl)(2H-tetrazol-2-yl)methyl]piperidine] |  |  | 2.4% |  | 
6 | 63% | 96% | 57% | Clc1ccc2cc([C@H]([C@H]3CCCNC3)n3ncnn3)ccc2c1 [Example 68, (3S)-3-[(S)-(6-chloronaphthalen-2-yl)(2H-tetrazol-2-yl)methyl]piperidine] |  |  | 7.1% | 48.1% (at 10sc) | 
7 | 3% | 95% | 14% | Clc1ccc2cc([C@@H]([C@H]3CCCNC3)n3ncnn3)ccc2c1 [Example 70, (3S)-3-[(R)-(6-chloronaphthalen-2-yl)(2H-tetrazol-2-yl)methyl]piperidine] |  |  |  |  | 
8 | 2% | 86% | 6% | Fc1ccc2cc([C@@H]([C@H]3CCCNC3)n3ncnn3)ccc2c1 [Example 72, (3S)-3-[(R)-(6-fluoronaphthalen-2-yl)(2H-tetrazol-2-yl)methyl]piperidine] |  |  | 46.7% |  | 
9 | 41% | 86% | -1% | c1ccc(-c2nnn([C@H](c3ccc4ccccc4c3)[C@H]3CCCNC3)n2)cc1 [Example 75, (3S)-3-[(S)-naphthalen-2-yl-(5-phenyl-tetrazol-2-yl)methyl]piperidine] |  |  |  |  | 
10 | 84% | 59% | 55% | c1ccc2cc([C@H]([C@H]3CCCNC3)n3nc4ccccc4n3)ccc2c1 [Example 80, 2-{(S)-naphthalen-2-yl[(3S)-piperidin-3-yl]methyl}-2H-benzotriazole] |  |  |  |  | 
11 | -4% | 44% | 5% | Fc1ccc2cc([C@H]([C@@H]3CCCNC3)n3ncnn3)ccc2c1 [Example 84, (3R)-3-[(S)-(6-fluoronaphthalen-2-yl)(2H-tetrazol-2-yl)methyl]piperidine] |  |  |  |  | 
12 | 81% | 94% | 74% | Cc1ccc2cc([C@H]([C@H]3CCCNC3)n3ncnn3)ccc2c1 [Example 85, (3S)-3-[(S)-(6-methylnaphthalen-2-yl)(2H-tetrazol-2-yl)methyl]piperidine] |  |  | 11.3% | 46.4% (at 10sc) | 
13 | 35% | 93% | -1% | Cc1ccc2cc([C@@H]([C@H]3CCCNC3)n3ncnn3)ccc2c1 [Example 86, (3S)-3-[(R)-(6-methylnaphthalen-2-yl)(2H-tetrazol-2-yl)methyl]piperidine] |  |  | 13.4% |  | 
14 | 44% | 87% | 39% | c1ccc2cc([C@H]([C@H]3CCCNC3)n3cncn3)ccc2c1 [Example 90, (3S)-3-[(S)-naphthalen-2-yl(1H-1,2,4-triazol-1-yl)methyl]piperidine] |  |  |  |  | 

Row | SMILES | inhibition at 0.1 µM [1] | inhibition at 0.1 µM [2] | inhibition at 0.1 µM [4] | Reduction % at 30sc (number of writhing) (mice [3]) | Reduction % (number of marbles buried) at 10ip (mice [5]; 10ip) | inhibition in vivo at 30 mg/kg (mice [6]) | Reduction % (number of writhing) at 10sc (mice [3]) | Reduction % (number of marbles buried) at 20ip (mice [5]; 20ip)
15 | c1ccc2cc([C@@H]([C@@H]3CCCNC3)n3ncnn3)ccc2c1 [Example 1, (3R)-3-[(R)-naphthalen-2-yl(2H-tetrazol-2-yl)methyl]piperidine] | 88% | 81% | 94% | 70.8% | 57.5% (at 10ip) | 56.3% |  | 
16 | c1ccc2cc([C@H]([C@H]3CCCNC3)n3ncnn3)ccc2c1 [Example 2, (3S)-3-[(S)-naphthalen-2-yl(2H-tetrazol-2-yl)methyl]piperidine] | 85% | 98% | 85% |  |  | 37.5% | 60.6% (at 10sc) | 67.5% (at 20ip)
